These results are taken from patent publication US7449465B2, “Triazolopyrimidine derivatives as glycogen synthase kinase 3 inhibitors” (Janssen Pharmaceutica, N.V., priority 2003, dated 2008).

One assay concerns the target GSK3β (Homo sapiens, UniProt P49841). As to the kind of experiment: GSK3beta assay (SPA, biotinylated phosphorylated CREB peptide, ATP-P33). It is filed as biochemical. To be noted: ranges of pIC50 (−log IC50 (M)); 1 μM ATP, room temperature, one hour; read-out: GSK3b pIC50 (converted). On the procedure: (§1) GSK3beta assays were performed at room temperature in a 100 μl reaction volume of 25 mM Tris (pH 7.4) containing 10 mM MgCl2.6H2O, 1 mM DTI, 0.1 mgiml BSA, 5% glycerol and containing 5.7 ng/μl GSK3β, 5 μM biotinylated phosphorylated CREB peptide, 1 μM ATP, 0.85 μCi/ml ATP-P^33 and a suitable amount of a test compound of formula (I). After one hour, the reaction was terminated by adding 70 μl of Stop mix (0.1 mM ATP, 5 mg/ml streptavidin coated PVT SPA bead pH 11.0). The beads to which the phosphorylated CREB peptide is attached were allowed to settle overnight and the radioactivity of the beads was counted in a microtiterplate scintillation counter and compared with the results obtained in a control experiment (without the presence of a test compound) in order to determine the percentage of GSK3β inhibition. The IC50 value, i.e. the concentration (M) of the test compound at which 50% of GSK3β is inhibited, was calculated from the dose response curve obtained by performing the above-described GSK3β assay in the presence of different amounts of the test compound.

In another assay the target is GSK3alpha (Homo sapiens, UniProt P49840). The assay can be described thus: GSK3alpha assay (same as the GSK3beta assay, 0.25 ng/μl GSK3alpha). To be noted: ranges of pIC50 (−log IC50 (M)), 1 μM ATP, read-out: GSK3a pIC50 (converted). It counts as biochemical. As for the experimental part: as §1
Sequence of GSK3alpha (P49840 whole entry, species assumed): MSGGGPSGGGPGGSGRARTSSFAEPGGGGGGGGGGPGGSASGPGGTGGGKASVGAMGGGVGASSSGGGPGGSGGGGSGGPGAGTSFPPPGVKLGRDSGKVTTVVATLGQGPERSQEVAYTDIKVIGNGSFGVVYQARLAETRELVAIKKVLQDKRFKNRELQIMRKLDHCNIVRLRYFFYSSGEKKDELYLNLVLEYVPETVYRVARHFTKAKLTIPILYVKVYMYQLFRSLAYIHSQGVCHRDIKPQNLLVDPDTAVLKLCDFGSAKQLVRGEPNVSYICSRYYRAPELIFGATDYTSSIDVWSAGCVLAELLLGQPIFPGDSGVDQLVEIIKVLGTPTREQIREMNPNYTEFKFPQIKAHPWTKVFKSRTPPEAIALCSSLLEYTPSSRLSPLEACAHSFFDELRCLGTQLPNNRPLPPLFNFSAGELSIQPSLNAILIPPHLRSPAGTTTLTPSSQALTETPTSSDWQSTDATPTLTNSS
The GSK3alpha assay was performed in the same way as described above for the GSK3beta assay except for the concentration of GSK3alpha which is 0.25 ng/μl.

Sequence of GSK3β (P49841 whole entry, species assumed): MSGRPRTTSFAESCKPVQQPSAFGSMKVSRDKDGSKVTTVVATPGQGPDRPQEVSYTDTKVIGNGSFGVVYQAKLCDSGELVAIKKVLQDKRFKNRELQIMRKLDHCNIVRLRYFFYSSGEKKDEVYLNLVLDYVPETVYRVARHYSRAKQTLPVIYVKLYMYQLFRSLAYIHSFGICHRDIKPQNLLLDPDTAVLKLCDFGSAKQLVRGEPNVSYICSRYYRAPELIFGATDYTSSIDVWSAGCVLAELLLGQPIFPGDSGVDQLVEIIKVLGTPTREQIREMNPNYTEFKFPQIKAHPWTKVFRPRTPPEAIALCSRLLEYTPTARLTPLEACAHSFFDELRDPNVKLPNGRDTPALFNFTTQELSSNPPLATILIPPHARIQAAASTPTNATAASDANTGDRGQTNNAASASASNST

Turning to `COc1cccc(-n2nnc3cnc(Nc4cccc(-c5ccnc(N)n5)c4)nc32)c1` [Compound 19], the IC50 at GSK3β and at GSK3alpha was < 1e-08 M in each case.
As to `OCCc1ccc(-n2nnc3cnc(Nc4ccc(N5CCOCC5)cc4)nc32)cc1` [Compound 85], the IC50 on GSK3β is > 1e-07 M; at GSK3alpha, < 1e-08 M.
As to `Brc1cccc(-n2nnc3cnc(Nc4cccc(-c5cncnc5)c4)nc32)c1` [Compound 47], the IC50 on GSK3β and at GSK3alpha was < 1e-08 M each time.
`Fc1cccc(-n2nnc3cnc(Nc4ccc(-n5cccn5)cc4)nc32)c1` [Compound 39]: the IC50 at GSK3β is 1e-08 to 1e-07 M; at GSK3alpha, > 1e-07 M.
On to `COCc1cccc(-n2nnc3cnc(Nc4ccc(C(=O)N5CCN(C)CC5)cc4)nc32)c1` [Compound 103], for which the IC50 on GSK3β and on GSK3alpha was < 1e-08 M in each case.
Regarding `N#CNc1nccc(-c2cccc(Nc3ncc4nnn(-c5cccc(F)c5)c4n3)c2)n1` [Compound 35], the IC50 on GSK3β and on GSK3alpha was < 1e-08 M throughout.
Consider `N#CCc1cccc(-n2nnc3cnc(Nc4cccc(-c5cnco5)c4)nc32)c1` [Compound 86], for which the IC50 on GSK3β and at GSK3alpha was < 1e-08 M each time.
In the case of `Fc1cccc(-n2nnc3cnc(Nc4ccc(-c5cnco5)cc4)nc32)c1` [Compound 38], the IC50 at GSK3β and at GSK3alpha was 1e-08 to 1e-07 M in each case.
On to `COCC(=O)NCc1cccc(-n2nnc3cnc(Nc4ccc(-c5cnco5)cc4)nc32)c1` [Compound 123], for which the IC50 on GSK3β and at GSK3alpha was < 1e-08 M in each case.
For `Cc1nccc(-c2cccc(Nc3ncc4nnn(-c5cccc(F)c5)c4n3)c2)n1` [Compound 32], the IC50 on GSK3β and at GSK3alpha was < 1e-08 M throughout.
For the compound `COCc1cccc(-n2nnc3cnc(Nc4cccc(-c5nnnn5C)c4)nc32)c1` [Compound 99], the IC50 on GSK3β and on GSK3alpha was < 1e-08 M each time.
Consider `CN1CCN(CCCOc2ccc(Nc3ncc4nnn(-c5cccc(F)c5)c4n3)cc2)CC1` [Compound 143], for which the figures for the IC50 at GSK3β and at GSK3alpha were 1e-08 to 1e-07 M and < 1e-08 M, respectively.
With `Nc1nccc(-c2cccc(Nc3ncc4nnn(-c5cccc(F)c5)c4n3)c2)n1` [Compound 33], the IC50 at GSK3β and at GSK3alpha was < 1e-08 M in each case.
In the case of `Cn1nccc1-c1cccc(Nc2ncc3nnn(-c4cccc(F)c4)c3n2)c1` [Compound 23], the IC50 on GSK3β and on GSK3alpha was < 1e-08 M throughout.
Turning to `Cn1nnc(-c2ccc(Nc3ncc4nnn(-c5cccc(F)c5)c4n3)cc2)n1` [Compound 42], the IC50 is < 1e-08 M at GSK3β and 1e-08 to 1e-07 M at GSK3alpha.
Turning to `COCCOc1cccc(-n2nnc3cnc(Nc4ccc(OCCCN5CCN(C)CC5)cc4)nc32)c1` [Compound 135], the IC50 on GSK3β and on GSK3alpha was 1e-08 to 1e-07 M throughout.
With `Fc1cccc(-n2nnc3cnc(Nc4ccc(-n5cncn5)cc4)nc32)c1` [Compound 40], the IC50 at GSK3β and on GSK3alpha was < 1e-08 M each time.
Regarding `COCCOc1cccc(-n2nnc3cnc(Nc4ccc(C(=O)NCCN5CCOCC5)cc4)nc32)c1` [Compound 134], the IC50 was 1e-08 to 1e-07 M on GSK3β and < 1e-08 M on GSK3alpha.
On the same counts, the results for `CN1CCN(c2cccc(Nc3ncc4nnn(-c5cccc(F)c5)c4n3)c2)CC1` [Compound 36] are < 1e-08 M and < 1e-08 M.
`COCCOCc1cccc(-n2nnc3cnc(Nc4ccc(C(=O)N5CCN(C)CC5)cc4)nc32)c1` [Compound 111]: the IC50 at GSK3β and at GSK3alpha was < 1e-08 M throughout.
Take `Cc1nc(-c2cccc(Nc3ncc4nnn(-c5cccc(F)c5)c4n3)c2)cs1` [Compound 21]: the IC50 at GSK3β and at GSK3alpha was < 1e-08 M throughout.
As to `COc1cccc(-n2nnc3cnc(Nc4cccc(N5CCN(C)CC5)c4)nc32)c1` [Compound 129], the IC50 at GSK3β and at GSK3alpha was 1e-08 to 1e-07 M throughout.
In the case of `COCCOCc1cccc(-n2nnc3cnc(Nc4ccc(CN5CCN(C)CC5)cc4)nc32)c1` [Compound 109], the IC50 on GSK3β and at GSK3alpha was 1e-08 to 1e-07 M in each case.
On to `Fc1cccc(-n2nnc3cnc(Nc4ccc(OCCCN5CCCCC5)cc4)nc32)c1` [Compound 142], for which the IC50 at GSK3β and at GSK3alpha was 1e-08 to 1e-07 M in each case.
With `OCCc1cccc(-n2nnc3cnc(Nc4cccc(-c5nnn[nH]5)c4)nc32)c1` [Compound 75], the IC50 is 1e-08 M at GSK3β and 1e-08 to 1e-07 M on GSK3alpha.
`CN1CCN(Cc2ccc(Nc3ncc4nnn(-c5cccc(CC#N)c5)c4n3)cc2)CC1` [Compound 89]: the results for the IC50 on GSK3β and on GSK3alpha were 1e-08 to 1e-07 M and < 1e-08 M, respectively.
Turning to `Brc1cccc(-n2nnc3cnc(Nc4cccc(C5=NCNC5)c4)nc32)c1` [Compound 43], the IC50 on GSK3β and at GSK3alpha was < 1e-08 M in each case.
Regarding `Brc1cccc(-n2nnc3cnc(Nc4ccc(-c5cc[nH]n5)cc4)nc32)c1` [Compound 50], the IC50 on GSK3β is 1e-08 to 1e-07 M; at GSK3alpha, < 1e-08 M.
As for `Fc1cccc(-n2nnc3cnc(Nc4cccc(-c5nnn[nH]5)c4)nc32)c1` [Compound 27], the IC50 at GSK3β and on GSK3alpha was < 1e-08 M throughout.
With `c1ccc(-n2nnc3cnc(Nc4cccc(-c5cnco5)c4)nc32)cc1` [Compound 73], the IC50 on GSK3β and at GSK3alpha was < 1e-08 M throughout.
Take `NS(=O)(=O)c1cccc(-n2nnc3cnc(Nc4cccc(-c5cnco5)c4)nc32)c1` [Compound 145]: the IC50 on GSK3β and at GSK3alpha was < 1e-08 M each time.
With `Cn1nnnc1-c1cccc(Nc2ncc3nnn(-c4ccccc4)c3n2)c1` [Compound 74], the IC50 at GSK3β and at GSK3alpha was < 1e-08 M in each case.
For the compound `CCOC(=O)NCc1cccc(-n2nnc3cnc(Nc4cccc(-c5cnco5)c4)nc32)c1` [Compound 125], the IC50 at GSK3β and at GSK3alpha was < 1e-08 M throughout.
For the compound `O=C(NCCN1CCOCC1)c1ccc(Nc2ncc3nnn(-c4cccc(CCO)c4)c3n2)cc1` [Compound 81], the IC50 at GSK3β and on GSK3alpha was < 1e-08 M in each case.
`Brc1cccc(-n2nnc3cnc(Nc4cccc(-c5ccn[nH]5)c4)nc32)c1` [Compound 44]: the IC50 on GSK3β is 1e-08 to 1e-07 M; on GSK3alpha, < 1e-08 M.
`Cn1cc(Br)c(-c2cccc(Nc3ncc4nnn(-c5cccc(F)c5)c4n3)c2)n1` [Compound 25]: the IC50 on GSK3β and on GSK3alpha was 1e-08 to 1e-07 M throughout.
As to `COCCOc1cccc(-n2nnc3cnc(Nc4ccc(N5CCN(C)CC5)cc4)nc32)c1` [Compound 130], the IC50 on GSK3β and at GSK3alpha was 1e-08 to 1e-07 M each time.
With `N#CCc1cccc(-n2nnc3cnc(Nc4ccc(CN5CCC(O)CC5)cc4)nc32)c1` [Compound 90], the IC50 on GSK3β and at GSK3alpha was < 1e-08 M in each case.
Turning to `Brc1cccc(-n2nnc3cnc(Nc4ccc(Nc5ncccn5)cc4)nc32)c1` [Compound 54], the IC50 is 1e-08 to 1e-07 M on GSK3β and < 1e-08 M at GSK3alpha.
As for `CC(C)CC(=O)NCc1cccc(-n2nnc3cnc(Nc4cccc(-c5ccnc(N)n5)c4)nc32)c1` [Compound 121], the values for the IC50 at GSK3β and at GSK3alpha were < 1e-08 M and 1e-08 M, respectively.
As to `COCCOCc1cccc(-n2nnc3cnc(Nc4ccc(C(=O)NCCN5CCOCC5)cc4)nc32)c1` [Compound 112], the IC50 at GSK3β and at GSK3alpha was < 1e-08 M throughout.
`CN1CCN(CCOc2ccc(Nc3ncc4nnn(-c5cccc(F)c5)c4n3)cc2)CC1` [Compound 140]: the results for the IC50 at GSK3β and on GSK3alpha were 1e-08 to 1e-07 M and < 1e-08 M, respectively.
